Assay results from patent publication US6297250A, “Pyrimidopyrimidine compounds” (Newcastle University Ventures Limited, priority 1997, dated 2001).
Values joined by “and” are separate entries in the source; they are usually repeats but may differ in a detail not shown here. Equal entries are not always repeated. Where two headings read alike, the source gives them in different places.

System: L1210 cells
Assay: Nucleoside transport inhibition assay: inhibition of 3H-thymidine uptake, with or without AGP or HSA
Type: cell-based, murine
Conditions: for inhibition at 10 µM: L1210, 10 μM compound; for inhibition at 100 µM: L1210, 100 μM compound; for inhibition at 1 µM: L1210, 1 μM compound; for inhibition at 50 µM: L1210, 50 μM compound; for Effect of AGP on the inhibition of thymidine uptake: in words; for inhibition at 0.25 µM: L1210, 0.25 μM compound
Experimental: In vitro activity. […] For testing the compounds an established nucleoside transport assay involving measurement of thymidine uptake was adapted. Murine leukaemia L1210 cells were used in this assay as their nucleoside transport characteristics are well known. This assay for measuring thymidine uptake used a modification of the rapid mixing technique of Wohleheuter, R. […] Materials used included a transport buffer comprising 130 mM NaCl, 5 mM KC1, 1 mM MgCl, 5 mM NaH2 PO4, 10 mM glucose and 10 mM HEPES. This buffer was made up as sterile 5× concentrate and reconstituted in distilled water and adjusted to pH 7.4 immediately prior to carrying out the assay. […] The supernatant was aspirated and the cells were washed with ice-cold transport buffer and centrifuged again at 1000 rpm for 5 minutes at 4° C. The supernatant was removed and the cells were resuspended in ice-cold transport buffer to give a final cell density of 2-4×10^7 cells/mi. Cells were left on ice for 30 minutes recovery prior to starting the assay. […] The suspension was mixed well and 100 μl was layered onto 150 μl silicone oil (9:11 Dow Corning 556 (Sp.Gr. 0.98):Dow Corning 550 (Sp.Gr. 1.068) (final Sp.Gr. 1.028) overlaying 50 μl 3M KOH in 6 replicate 0.5 ml microfuge tubes. […] The tubes were immediately transferred to a microfuge (Eppendorf) and spun at 12000 rpm for 2 minutes to pellet the cells through the oil and into the KOH. The tubes were capped and the cells left to solubilise in the KOH for 1 hour. Cell number and viability for each run was determined by haemocytometer counting using trypan blue exclusion. […] The tubes were capped and cut in the oil layer such that the bottom portion (cells solubilised in KOH) fell into a 20 ml scintillation vial. 1 ml 0.25M acetic acid followed by 1 ml air was injected into the tube using a 2 ml syringe and 23-gauge needle to disperse and neutralise the KOH-solubilisedcells. 10 ml of Optiphase HiSafe™ scintillant was added and the vials capped and shaken. […] The [^14 C]:[^3 H] ratio was used to calculate the amount of non-transported contaminating [^3 H]thymidine in the extracellular space.

[1] = Mus musculus, no AGP, read-out: % Inhibition of 3H-thymidine uptake, No AGP
[2] = Mus musculus, no AGP, 5% DMSO, read-out: % Inhibition of 3H-thymidine uptake, No AGP (5% DMSO)
[3] = 50 μM compound, no AGP, 5% DMSO, 50 µM
[4] = Mus musculus, +5 mg/ml AGP vs no AGP, read-out: % Reduction (of inhibition by AGP)
[5] = Mus musculus, +5 mg/ml AGP, read-out: % Inhibition of 3H-thymidine uptake, +5 mg/ml AGP

Compound CCCOc1nc(N2CCCCC2)c2nc(OCCC)nc(N3CCCCC3)c2n1 [NU3064, 2,6-Di(n)propoxy-4,8-dipiperidinopyrimidopyrimidine] has an inhibition at 10 µM [1] of 37 ± 11%, an inhibition at 100 µM [1] of 60 ± 9% and an IC50 (Mus musculus, L1210, no AGP) of 52000 nM.

For CCOC(C)(COc1nc(N2CCCCC2)c2nc(OCC(C)(OCC)OCC)nc(N3CCCCC3)c2n1)OCC [NU3065, 2,6-bis(2',2'-Diethylacetal-1-propoxy)-4,8-dipiperidinopyrimidopyrimidine], the inhibition at 1 µM [1] was 30 ± 7%, the inhibition at 10 µM [1] was 65 ± 9% and the inhibition at 100 µM [1] was 82 ± 16%. For the same compound, the IC50 (Mus musculus, L1210, no AGP) was 4240 nM.

For CC(=O)COc1nc(N2CCCCC2)c2nc(OCC(C)=O)nc(N3CCCCC3)c2n1 [NU3066, 2,6-Di(-2-oxopropoxy)-4,8-dipiperidinopyrimidopyrimidine], the inhibition at 10 µM [2] was 58 ± 3%.

COc1nc(N2CCCCC2)c2nc(OC)nc(N3CCCCC3)c2n1 [NU3067, 2,6-Dimethoxy-4,8-dipiperidinopyrimidopyrimidine] was tested, and the “% Inhibition of 3H-thymidine uptake, No AGP (5% DMSO)” value (“% Inhibition … No AGP (5% DMSO)” for short) [3] was 76%, the inhibition at 10 µM [2] was 39 ± 7% and the inhibition at 50 µM (Mus musculus, no AGP, 5% DMSO) was 81%.

With CCOc1nc(N2CCCCC2)c2nc(OCC)nc(N3CCCCC3)c2n1 [NU3068, 2,6-Diethoxy-4,8-dipiperidinopyrimidopyrimidine] the “% Inhibition … No AGP (5% DMSO)” value [3] was 65%, the inhibition at 10 µM [2] was 35 ± 4% and the inhibition at 50 µM (Mus musculus, no AGP, 5% DMSO) was 74%.

In the case of CC(C)Oc1nc(N2CCCCC2)c2nc(OC(C)C)nc(N3CCCCC3)c2n1 [NU3069, 2,6-Di-iso-propoxy-4,8-dipiperidinopyrimidopyrimidine], the inhibition at 10 µM [2] is reported as 23 ± 12% and the inhibition at 100 µM [2] is reported as 64 ± 6%.

In the case of CC(C)CCOc1nc(N2CCCCC2)c2nc(OCCC(C)C)nc(N3CCCCC3)c2n1 [NU3070, 2,6-Di-(3'-methylbutoxy)-4,8-dipiperidinopyrimidopyrimidine], the “% Inhibition … No AGP (5% DMSO)” value (10 μM compound, no AGP, 5% DMSO, 10 µM) is reported as 51% and the inhibition at 10 µM [2] is reported as 46%.

With CC(C)COc1nc(N2CCCCC2)c2nc(OCC(C)C)nc(N3CCCCC3)c2n1 [NU3071, 2,6-Di-(2'-methylpropoxy)-4,8-dipiperidinopyrimidopyrimidine] the inhibition at 10 µM [2] was 25 ± 4% and the inhibition at 100 µM [2] was 65 ± 4%.

For C=CCOc1nc(N2CCCCC2)c2nc(OCC=C)nc(N3CCCCC3)c2n1 [NU3072, 2,6-Di-allyloxy-4,8-dipiperidinopyrimidopyrimidine], the “% Inhibition … No AGP (5% DMSO)” value (100 μM compound, no AGP, 5% DMSO, 100 µM) was 63%, the inhibition at 10 µM [2] was 52 ± 7% and the inhibition at 100 µM [2] was 66%.

With COCC(C)Oc1nc(N2CCCCC2)c2nc(OC(C)COC)nc(N3CCCCC3)c2n1 (centres unmarked) [NU3074, 2,6-Di(1'-methoxy-2'-methyl)ethoxy-4,8-dipiperidinopyrimidopyrimidine] the inhibition at 10 µM [1] was 62 ± 10% and the inhibition at 100 µM [1] was 96 ± 7%.

For CC(O)COc1nc(N2CCCCC2)c2nc(OCC(C)O)nc(N3CCCCC3)c2n1 (centres unmarked) [NU3077, 2,6-Di(2'-hydroxypropoxy)-4,8-dipiperidinopyrimidopyrimidine], the “% Inhibition of 3H-thymidine uptake, No AGP” value (1 μM compound, no AGP, 1 µM) was 44 ± 8%, the inhibition at 1 µM [4] was 55% and the inhibition at 1 µM [5] was 20 ± 10%. For the same compound, the inhibition at 1 µM [1] was 47 ± 8%, the inhibition at 10 µM [4] was 25% and the inhibition at 10 µM [5] was 69 ± 9%. For the same compound, the inhibition at 10 µM [1] was 92 ± 10%, the IC50 (Mus musculus, L1210, no AGP) was 900 nM and the “Effect of AGP on the inhibition of thymidine uptake” value was “no significant reduction”. It also gave an IC50 (no AGP) of 1130 nM.

With CC1(C)OC[C@@H](COc2nc(NCc3ccccc3)c3nc(OC[C@@H]4COC(C)(C)O4)nc(NCc4ccccc4)c3n2)O1 [NU3078, (R,R)-2,6-bis(2',2'-Dimethyl-1',3'-dioxolane-4'-methoxy)-4,8-dibenzylamino pyrimidopyrimidine] the “% Inhibition of 3H-thymidine uptake, No AGP” value (10 μM compound, no AGP) was 46 ± 3%.

Work on OCCN(CCO)c1nc(NCc2ccc(C(F)(F)F)cc2)c2nc(N(CCO)CCO)nc(NCc3ccc(C(F)(F)F)cc3)c2n1 [NU3079, 2,6-bis(Diethanolamino)-4,8-di[(4'-trifluoromethylbenzyl)amino]pyrimido pyrimidine] yielded an inhibition at 1 µM [1] of 32 ± 11% and an inhibition at 10 µM [1] of 60 ± 7%.

For OCCN(CCO)c1nc(N2CCc3ccccc3C2)c2nc(N(CCO)CCO)nc(N3CCc4ccccc4C3)c2n1 [NU3080, 2,6-bis-Diethanolamino-4,8-di-(N-1,2,3,4-tetrahydroisoquinolyl)pyrimidopyrimidine], the inhibition at 1 µM [1] was 72 ± 22%, the inhibition at 10 µM [4] was 31% and the inhibition at 10 µM [5] was 69%. For the same compound, the inhibition at 10 µM [1] was 100% and the IC50 (Mus musculus, L1210, no AGP) was 720 ± 380 nM.

COc1ccc(CNc2nc(N(CCO)CCO)nc3c(NCc4ccc(OC)c(OC)c4)nc(Cl)nc23)cc1OC [NU3081, 2-chloro-6-diethanolamino-4,8-bis[(3',4'-dimethoxybenzyl)amino]pyrimidopyrimidine] was tested, and the inhibition at 1 µM [1] was 59 ± 2%, the inhibition at 10 µM [1] was 95 ± 9% and the IC50 (Mus musculus, L1210, no AGP) was 710 nM.

For OCCN(CCO)c1nc(N2CCc3ccccc3C2)c2nc(Cl)nc(N3CCc4ccccc4C3)c2n1 [NU3082, 2-Chloro-6-diethanolamino-4,8-di-(N-1,2,3,4-tetrahydroisoguinolyl)pyrimidopyrimidine], the “% Inhibition of 3H-thymidine uptake, No AGP” value (1 μM compound, no AGP, 1 µM) was 9% and 0% and the inhibition at 10 µM [1] was 22 ± 14%.

With OCCN(CCO)c1nc(NCc2ccc(Cl)cc2)c2nc(N(CCO)CCO)nc(NCc3ccc(Cl)cc3)c2n1 [NU3083, 2,6-bis(Diethanolamino)-4,8-di[(4'-chlorobenzyl)amino]pyrimido pyrimidine] the inhibition at 1 µM [1] was 53 ± 15%, the inhibition at 10 µM [1] was 92 ± 14% and the IC50 (Mus musculus, L1210, no AGP) was 1110 nM.

With COc1ccc(CNc2nc(N(CCO)CCO)nc3c(NCc4ccc(OC)c(OC)c4)nc(N(CCO)CCO)nc23)cc1OC [NU3084, 2,6-bis(Diethanolamino)-4,8-bis[(3',4'-dimethoxybenzyl)amino]pyrimidopyrimidine] the “% Inhibition of 3H-thymidine uptake, No AGP” value (1 μM compound, no AGP, 1 µM) was 67 ± 10%, the inhibition at 1 µM [4] was 4% and the inhibition at 1 µM [5] was 64 ± 3%. It also gave an inhibition at 1 µM [1] of 74 ± 16%, an inhibition at 10 µM [4] of 5% and an inhibition at 10 µM [5] of 93 ± 10%. The inhibition at 10 µM [1] was 98 ± 5%, the IC50 (Mus musculus, L1210, no AGP) was 250 nM and the “Effect of AGP on the inhibition of thymidine uptake” value was “no significant reduction”. For the same compound, the “Potency as inhibitor relative to dipyridamole” value (presence and absence of AGP, or of 40 mg/ml human serum albumin) was “more potent inhibitors than dipyridamole”.

In the case of OCCCOc1nc(N2CCCCC2)c2nc(OCCCO)nc(N3CCCCC3)c2n1 [NU3085, 2,6-Di(3'-hydroxypropoxy)-4,8-dipiperidinopyrimidopyrimidine], the “% Inhibition of 3H-thymidine uptake, No AGP” value (10 μM compound, no AGP, 10 µM) is reported as 100% and 76%, the inhibition at 1 µM [1] is reported as 35 ± 5% and the IC50 (Mus musculus, L1210, no AGP) is reported as 2360 nM.

With COc1ccc(CNc2nc(OCC(C)O)nc3c(NCc4ccc(OC)cc4)nc(OCC(C)O)nc23)cc1 (centres unmarked) [NU3087, 2,6-Di(2'-hydroxypropoxy)-4,8-bis(4'-methoxybenzylamino)pyrimidopyrimidine] the inhibition at 0.25 µM (Mus musculus, +0.125 mg/ml AGP vs no AGP, read-out: % Reduction (of inhibition by AGP)) was 0%, the inhibition at 0.25 µM (Mus musculus, +0.125 mg/ml AGP, read-out: % Inhibition of 3H-thymidine uptake, +0.125 mg/ml AGP) was 20 ± 2% and the inhibition at 0.25 µM [1] was 17%. The inhibition at 1 µM [1] was 68 ± 14%, the IC50 (Mus musculus, L1210, no AGP) was ~300 nM and the “Effect of AGP on the inhibition of thymidine uptake” value was “no significant reduction”.

CN(Cc1ccccc1)c1nc(OCCCO)nc2c(N(C)Cc3ccccc3)nc(OCCCO)nc12 [NU3088, 2,6-Di(3'-hydroxypropoxy)-4,8-di[(N-benzylmethyl)amino]pyrimidopyrimidine] was tested, and the “% Inhibition of 3H-thymidine uptake, No AGP” value (1 μM compound, no AGP) was 52 ± 19%, the “% Inhibition of 3H-thymidine uptake, No AGP” value (10 μM compound, no AGP, 10 µM) was 100% and 77% and the IC50 (no AGP) was 1440 nM.

For COc1ccc(CNc2nc(OCCO)nc3c(NCc4ccc(OC)cc4)nc(OCCO)nc23)cc1 [NU3089, 2,6-Di(2'-hydroxyethoxy)-4,8-di(4'-methoxybenzylamino)pyrimidopyrimidine], the “% Inhibition of 3H-thymidine uptake, No AGP” value (1 μM compound, no AGP, 1 µM) was 24 ± 18%, the inhibition at 1 µM [4] was 0% and the inhibition at 1 µM [5] was 28 ± 25%. It also gave an inhibition at 1 µM [1] of 40 ± 19%, an inhibition at 10 µM [1] of 88 ± 11% and an IC50 (Mus musculus, L1210, no AGP) of 670 nM. The IC50 (no AGP) was 1200 nM.
